# Experimental data: article PMC11701329, “Inhibition of the polyol pathway by Ducrosia anethifolia extract: plausible implications for diabetic retinopathy treatment” (Frontiers in Pharmacology, 2024)
# How the values were obtained:
# [1] = test system: T1, SD (sorbitol dehydrogenase); test: absorbance change at […] nm, Lineweaver-Burk; assay type: biochemical; settings: no extract; 0.5 mM NAD+, sorbitol 50-250 mM, 100 mM Tris-HCl pH 9.0
# T1 construct: gene SORD; purchased from Sigma-Aldrich; human recombinant cannot be excluded
# [2] = target: T1, SD (sorbitol dehydrogenase); test: absorbance change at […] nm (NAD+ reduction); assay type: biochemical; settings: 0.5 mM NAD+, 100 mM sorbitol, 100 mM Tris-HCl pH 9.0
# [3] = test system: O=CC(O)CO; test: purified protein; settings: no extract, 0.15 mM NADPH, DL-glyceraldehyde 5-25 mM, 100 mM sodium phosphate pH 6.2
compound,measurement,setting,value
OC[C@@H](O)[C@@H](O)[C@H](O)[C@@H](O)CO [sorbitol],Km,[1],44.7 mM
O=c1c(O)c(-c2ccc(O)c(O)c2)oc2cc(O)cc(O)c12 [quercetin],IC50,[2],8.14 ± 2.27 µg/mL
human recombinant AR (aldose reductase) (Homo sapiens),Km,[3],5.51 mM
same,Vmax,[3],0.069 µM/min
